For the experiment, the target named is human APJ receptor (Homo sapiens (Human), UniProt P35414). Description: [35S]GTPγS binding assay on membranes from CHO cells stably expressing human APJ receptor. In kind it is biochemical. The note with it: read-out: Activity hAPJ SPA EC50 IP. The procedure:
[^35S]GTPγS Binding The human APJ receptor was cloned by polymerase chain reaction and the gene encoding the receptor was subcloned in pFLAG-CMV™-3 expression vector (Sigma, Saint Louis, Mo. USA) in-house at Amgen. A GTPγS binding assay was performed on membranes prepared from CHO cells stably expressing human APJ receptor. The optimum experimental conditions for the concentrations of GDP, MgCl2, and NaCl in the assay buffer were initially determined. […] Incubation was at RT for 90 min and the microplate was read using a ViewLux™ ultra HTS Microplate Imager (PerkinElmer, Inc.). All the results presented are means of several independent experiments and analyzed by non-linear regression methods using the commercially available program Prism (GraphPad, San Diego, Calif.) providing the EC50 values detailed in Table 13.
Chain of human APJ receptor (P35414 whole entry): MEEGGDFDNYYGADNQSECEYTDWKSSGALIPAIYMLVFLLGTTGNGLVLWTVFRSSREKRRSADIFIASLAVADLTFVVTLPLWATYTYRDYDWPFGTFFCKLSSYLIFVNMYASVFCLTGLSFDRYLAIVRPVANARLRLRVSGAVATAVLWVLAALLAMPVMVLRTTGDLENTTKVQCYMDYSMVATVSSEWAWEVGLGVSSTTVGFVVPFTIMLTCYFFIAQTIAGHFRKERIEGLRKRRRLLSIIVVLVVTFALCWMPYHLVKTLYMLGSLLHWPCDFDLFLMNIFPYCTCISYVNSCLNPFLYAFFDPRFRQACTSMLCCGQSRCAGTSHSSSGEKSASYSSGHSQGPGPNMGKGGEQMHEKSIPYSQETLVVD
The EC50 is the concentration that produces a half-maximal response. As for `Cc1cnc([C@H](OC(C)C)[C@H](C)S(=O)(=O)Nc2nnc3n2[C@H](CO)COc2cccnc2-3)nc1` (mixture of isomers) [Example 58.0, (1S,2S)-N-((R)-5-(hydroxymethyl)-5,6-dihydropyrido[2,3-f][1,2,4]triazolo[4,3-d][1,4]oxazepin-3-yl)-1-isopropoxy-1-(5-methylpyrimidin-2-yl)propane-2-sulfonamide and (1S,2S)-N-((S)-5-(hydroxymethyl)-5,6-dihydropyrido[2,3-f][1,2,4]triazolo[4,3-d][1,4]oxazepin-3-yl)-1-isopropoxy-1-(5-methylpyrimidin-2-yl)propane-2-sulfonamide], the EC50 came to 2100 nM.

Take `COC[C@@H]1COc2ncccc2-c2nnc(NS(=O)(=O)[C@@H](C)[C@H](OC(C)C)c3ncc(C)cn3)n21` (mixture of isomers) [Example 59.0, (1R,2S)-N-((5R)-5-(methoxymethyl)-5,6-dihydropyrido[3,2-f][1,2,4]triazolo[4,3-d][1,4]oxazepin-3-yl)-1-(5-methyl-2-pyrimidinyl)-1-(2-propanyloxy)-2-propanesulfonamide and (1R,2S)-N-((5S)-5-(methoxymethyl)-5,6-dihydropyrido[3,2-f][1,2,4]triazolo[4,3-d][1,4]oxazepin-3-yl)-1-(5-methyl-2-pyrimidinyl)-1-(2-propanyloxy)-2-propanesulfonamide]: the EC50 was found to be 1200 nM.

Regarding `COC[C@@H]1COc2cccnc2-c2nnc(NS(=O)(=O)[C@@H](C)[C@@H](OC(C)C)c3ncc(C)cn3)n21` (mixture of isomers) [Example 61.0, (1S,2S)-N-((5R)-5-(methoxymethyl)-5,6-dihydropyrido[2,3-f][1,2,4]triazolo[4,3-d][1,4]oxazepin-3-yl)-1-(5-methyl-2-pyrimidinyl)-1-(2-propanyloxy)-2-propanesulfonamide and (1S,2S)-N-((5S)-5-(methoxymethyl)-5,6-dihydropyrido[2,3-f][1,2,4]triazolo[4,3-d][1,4]oxazepin-3-yl)-1-(5-methyl-2-pyrimidinyl)-1-(2-propanyloxy)-2-propanesulfonamide], the EC50 was determined as 440 nM.

`Cc1cnc([C@H](OC(C)C)[C@H](C)S(=O)(=O)Nc2nnc3n2[C@H](COC(C)C)COc2ccc(F)cc2-3)nc1` (mixture of isomers) [Example 62.0, (1S,2S)-N-((R)-10-fluoro-5-(isopropoxymethyl)-5,6-dihydrobenzo[f][1,2,4]triazolo[4,3-d][1,4]oxazepin-3-yl)-1-isopropoxy-1-(5-methylpyrimidin-2-yl)propane-2-sulfonamide and (1S,2S)-N-((S)-10-fluoro-5-(isopropoxymethyl)-5,6-dihydrobenzo[f][1,2,4]triazolo[4,3-d][1,4]oxazepin-3-yl)-1-isopropoxy-1-(5-methylpyrimidin-2-yl)propane-2-sulfonamide]: the EC50 came out at 21 nM.

Regarding `COC[C@@H]1COc2cnccc2-c2nnc(NS(=O)(=O)[C@@H](C)[C@@H](OC(C)C)c3ncc(C)cn3)n21` (mixture of isomers) [Example 65.0, (1S,2S)-N-((5R)-5-(methoxymethyl)-5,6-dihydropyrido[4,3-f][1,2,4]triazolo[4,3-d][1,4]oxazepin-3-yl)-1-(5-methyl-2-pyrimidinyl)-1-(2-propanyloxy)-2-propanesulfonamide and (1S,2S)-N-((5S)-5-(methoxymethyl)-5,6-dihydropyrido[4,3-f][1,2,4]triazolo[4,3-d][1,4]oxazepin-3-yl)-1-(5-methyl-2-pyrimidinyl)-1-(2-propanyloxy)-2-propanesulfonamide], the EC50 is 1200 nM.

Regarding `COC[C@@H]1COc2ccccc2-c2nnc(NS(=O)(=O)[C@@H](C)[C@H](C)c3ncc(OC)cn3)n21` (single isomer, unassigned) [Example 1.0, (2S,3R)-N-((5R)-5-(methoxymethyl)-5,6-dihydro[1,2,4]triazolo[4,3-d][1,4]benzoxazepin-3-yl)-3-(5-methoxy-2-pyrimidinyl)-2-butanesulfonamide or (2S,3R)-N-((5S)-5-(methoxymethyl)-5,6-dihydro[1,2,4]triazolo[4,3-d][1,4]benzoxazepin-3-yl)-3-(5-methoxy-2-pyrimidinyl)-2-butanesulfonamide], the EC50 is 120 nM.

Take `COC[C@@H]1COc2ccccc2-c2nnc(NS(=O)(=O)[C@@H](C)[C@H](C)c3ncc(OC)cn3)n21` (single isomer, unassigned) [Example 2.0, (2S,3R)-N-((5R)-5-(methoxymethyl)-5,6-dihydro[1,2,4]triazolo[4,3-d][1,4]benzoxazepin-3-yl)-3-(5-methoxy-2-pyrimidinyl)-2-butanesulfonamide or (2S,3R)-N-((5S)-5-(methoxymethyl)-5,6-dihydro[1,2,4]triazolo[4,3-d][1,4]benzoxazepin-3-yl)-3-(5-methoxy-2-pyrimidinyl)-2-butanesulfonamide]: the EC50 worked out at 770 nM.

Turning to `COC[C@@H]1COc2ccccc2-c2nnc(NS(=O)(=O)[C@@H](C)[C@@H](OC(C)C)c3ncc(C)cn3)n21` (single isomer, unassigned) [Example 4.0, (1S,2S)-N-((5R)-5-(methoxymethyl)-5,6-dihydro[1,2,4]triazolo[4,3-d][1,4]benzoxazepin-3-yl)-1-(5-methyl-2-pyrimidinyl)-1-(2-propanyloxy)-2-propanesulfonamide or (1S,2S)-N-((5S)-5-(methoxymethyl)-5,6-dihydro[1,2,4]triazolo[4,3-d][1,4]benzoxazepin-3-yl)-1-(5-methyl-2-pyrimidinyl)-1-(2-propanyloxy)-2-propanesulfonamide], the EC50 came to 17 nM.

In the case of `COC[C@@H]1COc2ccccc2-c2nnc(NS(=O)(=O)[C@@H](C)[C@@H](OC(C)C)c3ncc(C)cn3)n21` (single isomer, unassigned) [Example 5.0, (1S,2S)-N-((5R)-5-(methoxymethyl)-5,6-dihydro[1,2,4]triazolo[4,3-d][1,4]benzoxazepin-3-yl)-1-(5-methyl-2-pyrimidinyl)-1-(2-propanyloxy)-2-propanesulfonamide or (1S,2S)-N-((5S)-5-(methoxymethyl)-5,6-dihydro[1,2,4]triazolo[4,3-d][1,4]benzoxazepin-3-yl)-1-(5-methyl-2-pyrimidinyl)-1-(2-propanyloxy)-2-propanesulfonamide], the 50% effective concentration (EC50) came to 130 nM.

For `COC[C@@H]1COc2ccc(OC)nc2-c2nnc(NS(=O)(=O)[C@@H](C)[C@H](C)c3ncc(OC)cn3)n21` (single isomer, unassigned) [Example 6.0, (2S,3R)-N-((5R)-10-methoxy-5-(methoxymethyl)-5,6-dihydropyrido[2,3-f][1,2,4]triazolo[4,3-d][1,4]oxazepin-3-yl)-3-(5-methoxy-2-pyrimidinyl)-2-butanesulfonamide or (2S,3R)-N-((5S)-10-methoxy-5-(methoxymethyl)-5,6-dihydropyrido[2,3-f][1,2,4]triazolo[4,3-d][1,4]oxazepin-3-yl)-3-(5-methoxy-2-pyrimidinyl)-2-butanesulfonamide], the EC50 amounted to 2300 nM.

The values are drawn from patent US11149040B2, “Fused triazole agonists of the APJ receptor” (AMGEN INC., priority 2017, dated 2021).
